Literature values, collected in patent US20250295562A1, “Formulation for treatment of melasma, hyperpigmentation, and dark spots” (priority 2024, published 2025).

Tests used:
[1] = clinical

SMILES	anti-acne effect [1]	anticollagenase inhibitory activity (collagenase)	bactericidal activity (bacteria)
CCCCC/C=C\C/C=C\CCCCCCCC(=O)OCC [Ethyl Linoleate, Ethyl linoleate]	effective anti-acne agent		
CC(C)=CCC1=C(O)C(C(=O)CC(C)C)=C(O)C(CC=C(C)C)(CC=C(C)C)C1=O [lupulone]		moderate to strong	exhibited bactericidal activity
COc1cc(O)c(CC=C(C)C)c(O)c1C(=O)/C=C/c1ccc(O)cc1 [xanthohumol]		moderate to strong	exhibited bactericidal activity
